Reference: publication PMC7608335 (Acta Pharmacologica Sinica, 2020)

What was measured:
[1] = biological target: T1, CaV1.2 channel (α1C subunit) (Rattus norvegicus, UniProt P22002); assay: whole-cell patch clamp of ICa1.[…]; assay type: cell-based; details: read-out: % inhibition at 100 μM
[2] = biological target: T1, CaV1.2 channel (α1C subunit); assay: whole-cell patch clamp; assay type: cell-based; details: read-out: % of control at 100 nM

SMILES: O=C(c1ccc(F)cc1)C1CCN(CCn2c(=O)[nH]c3ccccc3c2=O)CC1 [ketanserin, 3-[2-[4-(4-fluorobenzoyl)piperidin-1-yl]ethyl]-1H-quinazoline-2,4-dione]
- inhibition at 100 µM [1]: ~50%

SMILES: COC(=O)C1=C(C)NC(C)=C([N+](=O)[O-])[C@H]1c1ccccc1C(F)(F)F [Bay K 8644, (S)-(-)-methyl-1,4-dihydro-2,6-dimethyl-3-nitro-4-(2-trifluoromethylphenyl)pyridine-5-carboxylate]
- remaining activity at 0.1 µM [2]: 524%
